Broadly, the pEC50 is the negative decadic logarithm of the EC50, by convention in mol/L.

The values below come from patent US8541379B2 (Ajinomoto Co., Inc., priority 2009, dated 2013).

pEC50: −log10 of the molar value. Starred links: 1 amine or outer side, 2 acyl side, 3 side chain; linkers in the order of their positions; H or OH if unused. Non-standard residues stand in square brackets, D forms with d. No end group written: not given here. γGlu = O=C(O)[C@H](CCC(=O)[*:2])N[*:1]

One assay deals with T1, human CaSR (Homo sapiens, UniProt P41180, E1011Q).
T1 construct: expressed in transfected cells; host or cells: 293E cells (EBNA1-expressing HEK293, ATCC CRL-10852), transient transfection with Fugene6
T1 sequence (P41180 20-1078 E1011Q): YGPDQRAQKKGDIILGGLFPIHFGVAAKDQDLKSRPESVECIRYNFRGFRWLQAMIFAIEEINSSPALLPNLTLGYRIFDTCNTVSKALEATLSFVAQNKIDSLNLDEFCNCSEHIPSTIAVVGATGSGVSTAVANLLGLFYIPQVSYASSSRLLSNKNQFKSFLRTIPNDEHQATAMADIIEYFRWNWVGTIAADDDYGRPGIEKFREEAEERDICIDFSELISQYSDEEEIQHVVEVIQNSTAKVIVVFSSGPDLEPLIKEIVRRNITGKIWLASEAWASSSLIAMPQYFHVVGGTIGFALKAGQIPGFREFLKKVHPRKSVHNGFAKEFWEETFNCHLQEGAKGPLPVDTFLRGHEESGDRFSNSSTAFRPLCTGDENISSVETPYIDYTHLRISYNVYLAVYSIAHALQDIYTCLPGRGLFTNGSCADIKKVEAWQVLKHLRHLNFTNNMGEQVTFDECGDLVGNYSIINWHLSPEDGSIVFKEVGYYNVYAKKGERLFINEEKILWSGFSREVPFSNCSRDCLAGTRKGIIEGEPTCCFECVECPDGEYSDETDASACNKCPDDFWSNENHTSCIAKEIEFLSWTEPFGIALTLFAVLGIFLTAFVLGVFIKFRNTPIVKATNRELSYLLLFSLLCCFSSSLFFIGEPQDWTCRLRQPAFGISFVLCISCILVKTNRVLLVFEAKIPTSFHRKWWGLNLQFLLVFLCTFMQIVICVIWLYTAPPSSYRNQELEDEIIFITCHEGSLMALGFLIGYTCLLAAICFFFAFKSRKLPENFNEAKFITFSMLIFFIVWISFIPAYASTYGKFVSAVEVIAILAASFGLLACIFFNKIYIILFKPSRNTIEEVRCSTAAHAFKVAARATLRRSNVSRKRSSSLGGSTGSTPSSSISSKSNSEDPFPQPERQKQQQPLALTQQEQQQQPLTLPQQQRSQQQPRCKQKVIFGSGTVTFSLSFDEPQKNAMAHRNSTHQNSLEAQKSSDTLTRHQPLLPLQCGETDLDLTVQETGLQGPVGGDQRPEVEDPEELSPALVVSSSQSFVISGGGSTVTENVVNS
As to the kind of experiment: Evaluation of CaSR agonist activity (Ca2+ fluorescence, hCaSR-transfected 293E cells). The class given is cell-based. Particulars: 293E cells transfected with hCaSR/pcDNA3.1, Calcium 4 fluorescence, FLEX Station. The method, then: 293E Cells (EBNA1-expresion HEK293 cells, ATCC No. CRL-10852) were cultivated in DMEN/Ham's-F12 (3.15/mL glucose-containing Dulbecco's modified Eagle medium, available from Nakaraitesk Company) supplemented with 10% fetal calf serum, in the presence of 200 μg/mL of G418 (available from Genetisin). The cultured cells were inoculated in F25 flask at a density of 3×10^6 cells/10 mL, the flask was allowed to stand over 24 hours in a CO2 incubator (5% CO2, 37° C.), and then the human CaSR-expression plasmid hCaSR/pcDNA3.1 was transformed or transfected with a reagent for transfection Fugene6 (available from Roche Company). The transfected plasmid was maintained in a CO2 incubator for 6 to 7 hours, then the cells were recovered using a 10% fetal calf serum-containing DMEM/Ham's-F12 and the cells were inoculated in each well of a poly-D-lysine coat 96-well plate (BD-Biocoat) at a density of 70,000 cells/well.
To each well of the 96-well plate, each test compound was dissolved in a 0.1% BSA-containing Assay Buffer in an amount of 50 μl/well, and then any change of the intensity of fluorescence was monitored over 3 minutes using FLEX Station (available from Molecular Devices Company).
Method for the Determination of EC50:
The difference (RFU (Max-Min)) between the maximum and minimum fluorescent intensities observed for each well before and after the addition of each specific test compound was determined by the automatic calculation using FLEX Station. The activity rate was calculated while the RFU (Max-Min) value observed when adding the compound at the maximum concentration was defined to be 100% and the RFU (Max-Min) value observed when using the 0.1% BSA-containing Assay Buffer free of any test compound was defined to be 0%, followed by subjecting the resulting data to the curve-fitting procedures using the spreadsheet software Xfit or Graph-Pad-Prism to thus determine the EC50 which was the concentration of the compound at the activity rate of 50%.
In addition, the same EC50-determining procedures used above were repeated except for using other dipeptides as Comparative Examples.

A short description of assay [1]: Quantitative sensory evaluation test of kokumi-imparting activity. The class given is in vivo, human. Particulars: n=4; for Intensity of kokumi, Initial Taste: scale control 0, strong 3, very strong 5. The method, then:
This quantitative sensory evaluation test was carried out according to the following procedures: The intensity of the kokumi-imparting activity observed for each test compound was determined as a value observed when blending 0.00001 to 0.5 g/dL of the corresponding test compound with the distilled water containing sodium glutamate (0.05 g/dL), inosinic acid monophosphate (0.05 g/dL), and sodium chloride (0.5 g/dL). […] The evaluation criteria are assumed to be as follows: control: 0 point; strong: 3 points; very strong: 5 points. Moreover, to clarify the criteria, the initial taste and the middle/after taste of γ-Glu-Val-Gly were set at 3.0 points, respectively. The scoring or rating was carried out using the method of line scale and more specifically, it was carried out by writing each corresponding score on a straight line on which points corresponding to −5˜0˜5 had been indicated. The panelists used in this test were defined to be persons who had been engaged in the development of seasonings for foods over not less than one year of the cumulative time period and who could judge that the difference in the titer between γ-Glu-Cys-Gly and γ-Glu-Val-Gly added to a solution having umami/salty taste is about 10 times (while confirming the ability of these persons at regular intervals). The evaluation was carried out at n (the number of panelists used)=4. The term “initial taste” means the taste which develops from 0 to 2 seconds after the sample is placed in the panelist's mouth, while the term “middle/after taste” means the taste which develops thereafter.
In addition, γ-Glu-Val-Gly, γ-Glu-Cys, γ-Glu-Val, γ-Glu-Ala and γ-Glu-Ser were likewise inspected for their kokumi-imparting effect according to the same procedures used above.

The mark [2] stands for this setting: 0.2 g/dL in water with MSG 0.05, IMP 0.05, NaCl 0.5 g/dL.
The mark [3] stands for this setting: 0.01 g/dL in umami/salty solution.
[4] abbreviates: 0.01 g/dL in water with MSG 0.05, IMP 0.05, NaCl 0.5 g/dL.
[5] abbreviates: 0.001 g/dL in water with MSG 0.05, IMP 0.05, NaCl 0.5 g/dL, reference set at 3.0.

Turning to `CC[C@H](NC(=O)CC[C@H](N)C(=O)O)C(=O)O`, the negative logarithm of the EC50 (pEC50) at human CaSR is 6.68.
The same measure, in the same setting: as for `CC(C)(NC(=O)CC[C@H](N)C(=O)O)C(=O)O` [γ-Glu-Aib], the figure is 4.81.
With `C[C@H](NC(=O)CC[C@H](N)C(=O)O)C(=O)O` [γ-Glu-Ala], the “Sensory Evaluation Profile” value in assay [1] (0.2 g/dL in umami/salty solution) is “Mainly the tastes similar to the sour”. Also, in assay [1] (setting [2]), the “Intensity of kokumi, Middle/After Taste” value stood at 4.3 points and the “Intensity of kokumi, Initial Taste” value was 4.5 points. Besides, the pEC50 at human CaSR is 5.91.
With `N[C@@H](CCC(=O)N[C@@H](CS)C(=O)O)C(=O)O` [γ-Glu-Cys], the “Sensory Evaluation Profile” value in assay [1] (setting [3]) is “Mainly the middle and after tastes”. In assay [1] (setting [4]), the “Intensity of kokumi, Middle/After Taste” value was 3.1 points and the “Intensity of kokumi, Initial Taste” value came to 3.1 points. Moreover, on human CaSR, the pEC50 is 6.80.
As for `CCCC[C@H](NC(=O)CC[C@H](N)C(=O)O)C(=O)O` [γ-Glu-Nle, γ-L-glutamyl-L-norleucine], at human CaSR, the pEC50 was 5.36.
Take `N[C@@H](CCC(=O)N[C@@H](CO)C(=O)O)C(=O)O` [γ-Glu-Ser]: in assay [1] (setting [2]), the “Intensity of kokumi, Middle/After Taste” value is given as 3.0 points and the “Intensity of kokumi, Initial Taste” value was determined as 3.6 points. In addition, the pEC50 at human CaSR was 4.96.
In the case of `C[C@@H](O)[C@H](NC(=O)CC[C@H](N)C(=O)O)C(=O)O` [γ-Glu-Thr], the pEC50 on human CaSR is 5.16.
Consider `CC(C)[C@H](NC(=O)CC[C@H](N)C(=O)O)C(=O)O` [γ-Glu-Val], for which the “Sensory Evaluation Profile” value in assay [1] (setting [3]) is given as “The after taste was quite weak”. Besides, in assay [1] (setting [4]), the “Intensity of kokumi, Middle/After Taste” value came to 2.4 points and the “Intensity of kokumi, Initial Taste” value is on record as 3.1 points. Also, at human CaSR, the pEC50 was 5.99.
Take `CC(C)(C)[C@H](NC(=O)CC[C@H](N)C(=O)O)C(=O)O` [γ-Glu-tLeu]: the pEC50 on human CaSR was 5.51.
Turning to [γGlu]-Val-Gly, in assay [1] (setting [5]), the “Intensity of kokumi, Middle/After Taste” value amounted to 3.0 points and the “Intensity of kokumi, Initial Taste” value is given as 3.0 points.
